Test results reported in patent US7136698B2 (priority 1996, dated 2006).

Test: Current density and goserelin flux: constant current electrotransport delivery
Format: in vivo, human
Method: This study was undertaken to evaluate the relationship between current density and drug flux in the transdermal electrotransport delivery of goserelin. The study involved the application of electrotransport devices, applying constant current, to 12 normal male volunteers for a duration of 8 hours.
The two electrotransport treatment regimens in this study differed only in applied current density levels. The electrotransport devices delivered goserelin through the skin from polyvinyl alcohol (PVOH)-based donor hydrogels having a skin-contact surface area of 4 cm^2. The gels contained an aqueous goserelin solution. The current density levels used in this study were […]. After an 8 hour treatment period, the electrotransport devices were removed. The skin site was then washed to remove any residual goserelin. All 12 volunteers received each treatment seven days apart.
For each treatment, seven blood samples were taken over a 24 hour period commencing with the application of current from the electrotransport devices. Serum goserelin concentrations from each patient were used to calculate mean drug flux and the mean total amount of drug delivered.

What does the source list for CC(C)C[C@H](NC(=O)[C@@H](COC(C)(C)C)NC(=O)[C@H](Cc1ccc(O)cc1)NC(=O)[C@H](CO)NC(=O)[C@H](Cc1c[nH]c2ccccc12)NC(=O)[C@H](Cc1cnc[nH]1)NC(=O)[C@@H]1CCC(=O)N1)C(=O)N[C@@H](CCCNC(=N)N)C(=O)N1CCC[C@H]1C(=O)NNC(N)=O [goserelin]?
average transdermal goserelin flux (applied current density 50 μA/cm^2, 8 hours): 5.8 µg/h; average transdermal goserelin flux (applied current density 100 μA/cm^2, 8 hours): 21.6 µg/h; increase in drug flux (current density rises from 50 to 100 μA/cm^2): almost four-fold increase
